# Test results reported in patent US6579899B1, “Composition for treatment of stress” (Massachusetts Institute of Technology, priority 1998, dated 2003).
# Where a name gives a salt, the structure may show the parent alone.
# Tests used:
# [1] = test system: obese, stressed patients; assay: CES-D test of current levels of emotional distress in patients; format: in vivo, human
# Excerpt: (§1) A subgroup of obese individuals is identified, which individuals describe themselves as being unable to control their eating and who attempt to continue on a weight-reducing diet when experiencing emotional distress. […]
# (§2) Objective measurements of emotional distress are made in some patients using the CES-D (Center for […] Depression Form) test, which measures current levels of emotional distress (Radloff, et al., The CES-D Scale: A Self Report Depression Scale for Research in the General Population Applied Psychological Measurement 1: 385-401, 1977); and the POMS (Profile of Mood States test, that assesses tension, depression, anger and confusion (McNair, et al., Profile of Mood States Manual;San Diego: Educational and Industrial Testing Service, 1971); both of these references are hereby incorporated by reference in their entirety. These tests are also given monthly during the treatment period. At the same time, patients also complete questionnaires that ask the patients to rate their appetite and hunger, and also to rate their tendency to eat in response to a variety of emotional and stressful triggers. The patients are also weighed monthly.
# [2] = test system: obese, stressed patients; assay: questionnaire rating tendency to eat in response to emotional and stressful triggers; format: in vivo, human; design: Emotional Triggers: scale not given here
# Excerpt: as §1, §2
# [3] = test system: obese, stressed patients; assay: questionnaire rating appetite and hunger; format: in vivo, human; design: Appetite and Cravings: scale not given here
# Excerpt: as §1, §2
# [4] = test system: Sprague-Dawley rats; assay: stress related eating (clamp tightened on the tail) in rats; format: in vivo, rat; details: for Stress Eating, relative amount with 0 mg/kg as 100% / Stressed Rats, average amount of food consumed per rat / Stress Eating / Control Rats, average amount of food consumed per rat: 8 hours; for Stressed Rats, average amount of food consumed per rat: clamp tightened on the tail; for Stress Eating: stressed minus control rats; for stress-related eating: stressed rats, 1-10 mg/kg; for Control Rats, average amount of food consumed per rat: untightened clamp
# Method: The effect of the hydrochloride salt of 6-chloro-2-(1-piperazinyl)pyrazine (MK-212, which is obtained from Merck & Co., Inc. Whitehouse Station, N.J.), on stress related eating in animals is determined through the observation of the effect of experimental compounds on stress-related eating in adult Sprague-Dawley rats. These rats are widely used as a recognized animal model useful in predicting the effect of serotoninergic drugs in humans.
# In these experiments, a group of 5 adult female and 5 adult male Sprague-Dawley rats weighing between 200 and 250 grams each are used as control animals. An untightened clamp is placed on the tail of these animals. The untightened clamp provides the unstressed condition. Each animal is placed in an individual cage and allowed free access to food. The amount of food consumed is determined at 2, 4 and 8 hours after the initiation of the trial. A similar group of rats has a clamp tightened on the tail. The amount of food consumed by this stressed group of rats is shown in the 0 mg/kg column. […] similar groups of stressed rats are injected with 1, 2, 5, or 10 mg/kg body weight of MK-212 one hour before initiation of the experiment.
# The relative amounts of stress eating with the amount at 0 mg/kg MK-212 as 100% is also shown in the Stress Eating row. The preferred daily dose of MK-212 is about 1 mg/kg body weight to about 10 mg/kg body weight.
# [5] = 1 mg/kg injected one hour before
# [6] = 2 mg/kg injected one hour before
# [7] = 5 mg/kg injected one hour before
# [8] = 10 mg/kg injected one hour before
# [9] = patient nine, 100 mg/day in divided doses, Month 1, baseline 9
# [10] = patient nine, 100 mg/day in divided doses, Month 2, baseline 9
# [11] = patient nine, 100 mg/day in divided doses, Month 3, baseline 9
# [12] = patient nine, 100 mg/day in divided doses, Month 4, baseline 9
molecule,measurement,setting,value
CN(C)CCC=C1c2ccccc2CCc2ccccc21 [amitriptyline hydrochloride],Mood Scores CES-D,"[1]; patient twelve, 75 then 100 mg/day, Month 1, baseline 29",22
same,Mood Scores CES-D,"[1]; patient twelve, 75 then 100 mg/day, Month 2, baseline 29",20
same,Mood Scores CES-D,"[1]; patient twelve, 75 then 100 mg/day, Month 3, baseline 29",23
same,Mood Scores CES-D,"[1]; patient twelve, 75 then 100 mg/day, Month 4, baseline 29",18
same,Emotional Triggers,"[2]; patient twelve, 75 then 100 mg/day, Month 1, baseline 25",22
same,Emotional Triggers,"[2]; patient twelve, 75 then 100 mg/day, Month 2, baseline 25",13
same,Emotional Triggers,"[2]; patient twelve, 75 then 100 mg/day, Month 3, baseline 25",5
same,Emotional Triggers,"[2]; patient twelve, 75 then 100 mg/day, Month 4, baseline 25",3
same,Appetite and Cravings,"[3]; patient twelve, 75 then 100 mg/day, Month 1, baseline 19",16
same,Appetite and Cravings,"[3]; patient twelve, 75 then 100 mg/day, Month 2, baseline 19",8
same,Appetite and Cravings,"[3]; patient twelve, 75 then 100 mg/day, Month 3, baseline 19",13
same,Appetite and Cravings,"[3]; patient twelve, 75 then 100 mg/day, Month 4, baseline 19",8
COc1ccc(C(CN(C)C)C2(O)CCCCC2)cc1 (stereo not shown) [venlafaxine hydrochloride],Mood Scores CES-D,"[1]; patient ten, 75 rising to 150 mg/day, Month 1, baseline 8",4
same,Mood Scores CES-D,"[1]; patient ten, 75 rising to 150 mg/day, Month 2, baseline 8",6
same,Mood Scores CES-D,"[1]; patient ten, 75 rising to 150 mg/day, Month 3, baseline 8",2
same,Mood Scores CES-D,"[1]; patient ten, 75 rising to 150 mg/day, Month 4, baseline 8",2
same,Emotional Triggers,"[2]; patient ten, 75 rising to 150 mg/day, Month 1, baseline 14",9
same,Emotional Triggers,"[2]; patient ten, 75 rising to 150 mg/day, Month 2, baseline 14",4
same,Emotional Triggers,"[2]; patient ten, 75 rising to 150 mg/day, Month 3, baseline 14",6
same,Emotional Triggers,"[2]; patient ten, 75 rising to 150 mg/day, Month 4, baseline 14",2
same,Appetite and Cravings,"[3]; patient ten, 75 rising to 150 mg/day, Month 1, baseline 10",6
same,Appetite and Cravings,"[3]; patient ten, 75 rising to 150 mg/day, Month 2, baseline 10",7
same,Appetite and Cravings,"[3]; patient ten, 75 rising to 150 mg/day, Month 3, baseline 10",3
same,Appetite and Cravings,"[3]; patient ten, 75 rising to 150 mg/day, Month 4, baseline 10",1
(S)-2-(Chloro-5-fluoro-indol-1-yl)-1-methylethylamine [Ro 60-0332/ORG 35035],"Stress Eating, relative amount with 0 mg/kg as 100%",[4]; 1 mg/kg,(103%)
same,"Stress Eating, relative amount with 0 mg/kg as 100%",[4]; 2 mg/kg,(28%)
same,"Stress Eating, relative amount with 0 mg/kg as 100%",[4]; 5 mg/kg,(17%)
same,"Stress Eating, relative amount with 0 mg/kg as 100%",[4]; 10 mg/kg,(13%)
same,"Stressed Rats, average amount of food consumed per rat",[4]; [5],4.87 g
same,"Stressed Rats, average amount of food consumed per rat",[4]; [6],2.19 g
same,"Stressed Rats, average amount of food consumed per rat",[4]; [7],1.83 g
same,"Stressed Rats, average amount of food consumed per rat",[4]; [8],1.74 g
same,Stress Eating,[4]; 1 mg/kg,3.58 g
same,Stress Eating,[4]; 2 mg/kg,0.99 g
same,Stress Eating,[4]; 5 mg/kg,0.60 g
same,Stress Eating,[4]; 10 mg/kg,0.46 g
same,stress-related eating,[4],reduces stress-related eating
same,"Control Rats, average amount of food consumed per rat",[4]; [5],1.29 g
same,"Control Rats, average amount of food consumed per rat",[4]; [6],1.20 g
same,"Control Rats, average amount of food consumed per rat",[4]; [7],1.21 g
same,"Control Rats, average amount of food consumed per rat",[4]; [8],1.28 g
"Cc1ccc2c(c1)-c1c(ccn1C[C@H](C)N)C2(C)C [Ro 60-175/ORG 35030, (S)-2-(4,4,7-trimethyl-1,4-dihydro-indol (1,2-B)pyrrol-1-yl)-1-methylethylamine]","Stress Eating, relative amount with 0 mg/kg as 100%",[4]; 1 mg/kg,(74%)
same,"Stress Eating, relative amount with 0 mg/kg as 100%",[4]; 2 mg/kg,(4%)
same,"Stress Eating, relative amount with 0 mg/kg as 100%",[4]; 5 mg/kg,(3%)
same,"Stress Eating, relative amount with 0 mg/kg as 100%",[4]; 10 mg/kg,(1%)
same,"Stressed Rats, average amount of food consumed per rat",[4]; [5],3.66 g
same,"Stressed Rats, average amount of food consumed per rat",[4]; [6],1.43 g
same,"Stressed Rats, average amount of food consumed per rat",[4]; [7],1.30 g
same,"Stressed Rats, average amount of food consumed per rat",[4]; [8],1.16 g
same,Stress Eating,[4]; 1 mg/kg,2.38 g
same,Stress Eating,[4]; 2 mg/kg,0.13 g
same,Stress Eating,[4]; 5 mg/kg,0.10 g
same,Stress Eating,[4]; 10 mg/kg,0.03 g
same,stress-related eating,[4],reduces stress related eating
same,"Control Rats, average amount of food consumed per rat",[4]; [5],1.28 g
same,"Control Rats, average amount of food consumed per rat",[4]; [6],1.30 g
same,"Control Rats, average amount of food consumed per rat",[4]; [7],1.20 g
same,"Control Rats, average amount of food consumed per rat",[4]; [8],1.13 g
O=c1n(CCCN2CCN(c3cccc(Cl)c3)CC2)nc2ccccn12 [trazodone hydrochloride],Mood Scores CES-D,[1]; [9],16
same,Mood Scores CES-D,[1]; [10],16
same,Mood Scores CES-D,[1]; [11],10
same,Mood Scores CES-D,[1]; [12],1
same,Emotional Triggers,"[2]; patient nine, 100 mg/day in divided doses, Month 1, baseline 12",12
same,Emotional Triggers,"[2]; patient nine, 100 mg/day in divided doses, Month 2, baseline 12",9
same,Emotional Triggers,"[2]; patient nine, 100 mg/day in divided doses, Month 3, baseline 12",5
same,Emotional Triggers,"[2]; patient nine, 100 mg/day in divided doses, Month 4, baseline 12",3
same,Appetite and Cravings,[3]; [9],5
same,Appetite and Cravings,[3]; [10],5
same,Appetite and Cravings,[3]; [11],3
same,Appetite and Cravings,[3]; [12],5
COCCCC/C(=N\OCCN)c1ccc(C(F)(F)F)cc1 [fluvoxamine maleate],Mood Scores CES-D,"[1]; patient three, 50 rising to 150 mg/day, Month 1, baseline 23",26
same,Mood Scores CES-D,"[1]; patient three, 50 rising to 150 mg/day, Month 2, baseline 23",16
same,Mood Scores CES-D,"[1]; patient three, 50 rising to 150 mg/day, Month 3, baseline 23",15
same,Mood Scores CES-D,"[1]; patient three, 50 rising to 150 mg/day, Month 4, baseline 23",17
same,Emotional Triggers,"[2]; patient three, 50 rising to 150 mg/day, Month 1, baseline 34",27
same,Emotional Triggers,"[2]; patient three, 50 rising to 150 mg/day, Month 2, baseline 34",30
same,Emotional Triggers,"[2]; patient three, 50 rising to 150 mg/day, Month 3, baseline 34",20
same,Emotional Triggers,"[2]; patient three, 50 rising to 150 mg/day, Month 4, baseline 34",24
same,Appetite and Cravings,"[3]; patient three, 50 rising to 150 mg/day, Month 1, baseline 18",16
same,Appetite and Cravings,"[3]; patient three, 50 rising to 150 mg/day, Month 2, baseline 18",11
same,Appetite and Cravings,"[3]; patient three, 50 rising to 150 mg/day, Month 3, baseline 18",12
same,Appetite and Cravings,"[3]; patient three, 50 rising to 150 mg/day, Month 4, baseline 18",14
CCN[C@@H](C)Cc1cccc(C(F)(F)F)c1 [dexfenfluramine hydrochloride],Mood Scores CES-D,"[1]; patient eleven, 30 mg/day, Month 1, baseline 19",5
same,Mood Scores CES-D,"[1]; patient eleven, 30 mg/day, Month 2, baseline 19",2
same,Mood Scores CES-D,"[1]; patient eleven, 30 mg/day, Month 3, baseline 19",3
same,Emotional Triggers,"[2]; patient eleven, 30 mg/day, Month 1, baseline 30",12
same,Emotional Triggers,"[2]; patient eleven, 30 mg/day, Month 2, baseline 30",13
same,Emotional Triggers,"[2]; patient eleven, 30 mg/day, Month 3, baseline 30",5
same,Appetite and Cravings,"[3]; patient eleven, 30 mg/day, Month 1, baseline 9",6
same,Appetite and Cravings,"[3]; patient eleven, 30 mg/day, Month 2, baseline 9",8
same,Appetite and Cravings,"[3]; patient eleven, 30 mg/day, Month 3, baseline 9",3
same,Appetite and Cravings,"[3]; patient eleven, 30 mg/day, Month 4, baseline 9",5
"Clc1cncc(N2CCNCC2)n1 [MK-212, 6-chloro-2-(1-piperazinyl)pyrazine]","Stress Eating, relative amount with 0 mg/kg as 100%",[4]; 1 mg/kg,(83%)
same,"Stress Eating, relative amount with 0 mg/kg as 100%",[4]; 2 mg/kg,(76%)
same,"Stress Eating, relative amount with 0 mg/kg as 100%",[4]; 5 mg/kg,(25%)
same,"Stress Eating, relative amount with 0 mg/kg as 100%",[4]; 10 mg/kg,(0%)
same,"Stressed Rats, average amount of food consumed per rat",[4]; [5],4.14 g
same,"Stressed Rats, average amount of food consumed per rat",[4]; [6],3.78 g
same,"Stressed Rats, average amount of food consumed per rat",[4]; [7],2.01 g
same,"Stressed Rats, average amount of food consumed per rat",[4]; [8],0.97 g
same,Stress Eating,[4]; 1 mg/kg,2.82 g
same,Stress Eating,[4]; 2 mg/kg,2.58 g
same,Stress Eating,[4]; 5 mg/kg,0.85 g
same,Stress Eating,[4]; 10 mg/kg,0.0 g
same,stress-related eating,[4],reduces stress-related eating
same,"Control Rats, average amount of food consumed per rat",[4]; [5],1.32 g
same,"Control Rats, average amount of food consumed per rat",[4]; [6],1.20 g
same,"Control Rats, average amount of food consumed per rat",[4]; [7],1.16 g
same,"Control Rats, average amount of food consumed per rat",[4]; [8],1.03 g
